From article PMC11058299, “Synthesis, molecular docking evaluation for LOX and COX-2 inhibition and determination of in-vivo analgesic potentials of aurone derivatives” (Heliyon, 2024)
“Also recorded” adds a separate entry of the source.

Columns and labels:
COX-2 enzyme = molecular target: T1, COX-2 enzyme (Homo sapiens, UniProt P35354); assay: COX-2 inhibitory assay; format: biochemical; conditions: Table 2
T1 construct: purchased Sigma Aldrich
T1 sequence (P35354 18-604): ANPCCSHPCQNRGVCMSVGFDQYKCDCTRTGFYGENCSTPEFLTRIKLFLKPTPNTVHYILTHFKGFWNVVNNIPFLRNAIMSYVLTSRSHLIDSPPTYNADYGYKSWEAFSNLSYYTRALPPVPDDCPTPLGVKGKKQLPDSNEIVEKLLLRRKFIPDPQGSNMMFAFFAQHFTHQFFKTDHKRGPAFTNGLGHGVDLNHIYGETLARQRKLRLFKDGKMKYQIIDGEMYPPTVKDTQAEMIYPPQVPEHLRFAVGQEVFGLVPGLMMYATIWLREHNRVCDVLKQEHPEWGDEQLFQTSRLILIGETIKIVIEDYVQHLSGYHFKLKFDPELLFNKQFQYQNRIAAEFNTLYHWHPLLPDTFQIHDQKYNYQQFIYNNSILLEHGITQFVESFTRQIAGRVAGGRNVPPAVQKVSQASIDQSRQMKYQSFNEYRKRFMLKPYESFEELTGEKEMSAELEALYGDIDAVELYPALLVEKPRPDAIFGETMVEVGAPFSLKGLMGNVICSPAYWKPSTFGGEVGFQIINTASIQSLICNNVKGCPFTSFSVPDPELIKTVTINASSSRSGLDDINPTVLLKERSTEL
Method: COX-2 inhibition was measured spectrophotometrically at 550 nm after the formation of oxidized form of tetramethlenephenylenediamine (TMPD). This assay was conducted according to previously reported procedure. […] The reaction contained 10 μL COX-2 enzymes (100 μM in diluted in DMSO), 10 μL haem of 2.2 mM diluted in DMSO, tris buffers (pH. 8, 100 μl) and drug samples according to the above stated procedure. The reaction was started by the addition of freshly prepared TMPD and methanolic arachidonic acid (AA). Celecoxib is used as a reference drug in this assay. After 5 min of incubation at 25–28C, the absorbance was measured at 550 nm and inhibition was calculated.

[1] = system: heat induced tail flicking latency; assay: Tail immersion test; format: in vivo; conditions: mice; for tail flicking latency: after 90 min, without Naloxone
Method: Group I: Control, Group II-XV: WE-1 to WE-7 (sample compounds) at dose of 10 mg/kg and 20 mg/kg and Group XVI: Standard. The control (Group I) was given normal saline. Group II-XV received 10 mg/kg and 20 mg/kg of test sample (WE-1 to WE-7).
(§1) The cut-off time was set at 25 s, and the time taken for the mice to flick their tails out of the water was recorded at 30, 60, 90, and 120-min intervals. An increase in the time of tail immersion was compared to the control group to determine the analgesic effect of the tested drugs. The percentage of inhibition was calculated at the time interval showing the highest effect.

LOX enzyme = molecular target: T2, LOX enzyme (Glycine max, UniProt P08170); assay: LOX enzyme kinetic assay (Lineweaver-Burk); format: biochemical; conditions: Lineweaver-Burk plot
T2 construct: purchased Cayman Chemicals
T2 sequence (P08170 1-839): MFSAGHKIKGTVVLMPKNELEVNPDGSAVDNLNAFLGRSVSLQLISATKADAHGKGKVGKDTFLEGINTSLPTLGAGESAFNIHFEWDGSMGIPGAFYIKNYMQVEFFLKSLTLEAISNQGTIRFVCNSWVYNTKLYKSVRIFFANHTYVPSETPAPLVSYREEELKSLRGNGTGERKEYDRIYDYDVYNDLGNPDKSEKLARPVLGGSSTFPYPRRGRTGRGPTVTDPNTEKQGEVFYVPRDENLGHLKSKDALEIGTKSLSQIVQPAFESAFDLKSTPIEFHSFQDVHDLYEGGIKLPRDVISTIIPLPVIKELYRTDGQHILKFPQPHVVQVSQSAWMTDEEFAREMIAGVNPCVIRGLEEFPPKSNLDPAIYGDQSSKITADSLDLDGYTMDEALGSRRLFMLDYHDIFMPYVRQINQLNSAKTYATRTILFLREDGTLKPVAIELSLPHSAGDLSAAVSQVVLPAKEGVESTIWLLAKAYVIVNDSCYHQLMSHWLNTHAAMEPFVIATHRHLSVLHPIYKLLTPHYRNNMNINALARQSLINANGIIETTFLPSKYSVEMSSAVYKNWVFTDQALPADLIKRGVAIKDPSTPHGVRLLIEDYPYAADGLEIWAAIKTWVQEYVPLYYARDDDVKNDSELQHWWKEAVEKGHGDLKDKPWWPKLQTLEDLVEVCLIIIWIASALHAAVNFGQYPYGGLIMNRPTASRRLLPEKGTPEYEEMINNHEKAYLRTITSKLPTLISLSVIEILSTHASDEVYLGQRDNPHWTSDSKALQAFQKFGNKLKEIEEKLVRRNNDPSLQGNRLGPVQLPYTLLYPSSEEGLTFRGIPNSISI
Method: The type of enzyme inhibition by compound (WE-4) was determined using the continuous spectrophotometric rate determination method. Various concentrations of the substrate (AA) were prepared in a Tween-20 solution within a 200 mM borate buffer at pH 9.0. A fixed concentration of LOX enzyme (10,000 units/ml) was prepared in a separate 200 mM borate buffer at pH 9.0. The enzyme kinetics were analyzed by employing the Lineweaver and Burk method while examining the substrate at different concentrations in the presence or absence of compound (WE-4).

[2] = system: opioid receptors (tail flicking latency); assay: Assessment of opioid mechanism via tail immersion test with Naloxone; format: in vivo; conditions: mice; for Latency response 30 min: control 3.14 ± 0.31; for Latency response 60 min: control 3.17 ± 0.41; for Latency response 120 min: control 3.20 ± 0.29; for Latency response 90 min: control 3.31 ± 0.44
Method: as §1
To verify the involvement of the opioid mechanism, following the approach outlined in the published study. […] These derivatives were assessed for their potential opioid activity within the control, sample compounds and standard groups using the tail immersion test.

IC50 (COX-2 enzyme): 0.22 µM
melting point: 175 to 178 °C
Compound: COc1ccc(C=C2Oc3ccccc3C2=O)cc1OC [WE-4, 2-(3,4-dimethoxybenzylidene)benzofuran-3(2H)-one]
tail flicking latency ([1]; 10 mg/kg): 11.23 ± 0.93
percentage inhibition of pain, tail immersion ([1]; 20 mg/kg oral, at interval of highest effect): 74.31%
tail flicking latency ([1]; 20 mg/kg): 13.41 ± 1.21
type of enzyme inhibition (LOX enzyme): non-competitive inhibitor; also recorded: non-competitive inhibition
Latency response 30 min ([2]; 10 mg/kg + Naloxone 2 mg/kg): 3.60 ± 0.61
Latency response 60 min ([2]; 10 mg/kg + Naloxone 2 mg/kg): 4.49 ± 0.43
Latency response 120 min ([2]; 10 mg/kg + Naloxone 2 mg/kg): 3.80 ± 0.49
Latency response 90 min ([2]; 10 mg/kg + Naloxone 2 mg/kg): 5.30 ± 0.48
Latency response 30 min ([2]; 20 mg/kg + Naloxone 2 mg/kg): 3.41 ± 0.48
Latency response 60 min ([2]; 20 mg/kg + Naloxone 2 mg/kg): 4.67 ± 0.60
Latency response 120 min ([2]; 20 mg/kg + Naloxone 2 mg/kg): 4.03 ± 0.57
Latency response 90 min ([2]; 20 mg/kg + Naloxone 2 mg/kg): 4.80 ± 0.61
